Legend:
[1] = molecular target: Prostaglandin G/H synthase 1 (Homo sapiens, UniProt P23219); assay: biochemical; assay type: tissue-based, Platelet; conditions: platelet;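 also: inhibition of COX-1 enzyme activity, with arachidonic acid supplied as substrate; in other assays of this panel Not Active means under 50% inhibition at 10 µM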
[2] = DRUGMATRIX: Serotonin (5-Hydroxytryptamine) 5-HT3 radioligand binding (ligand: [3H] GR-65630); assay type: cell membranes, Membrane; conditions: hek293; Not Active = under 50% inhibition at 10 µM
[3] = molecular target: 5-hydroxytryptamine receptor 2B (Homo sapiens, UniProt P41595); assay type: cell membranes, CHO-K1, Membrane; conditions: cho-k1; also: in other assays of this panel Not Active means under 50% inhibition at 10 µM
[4] = molecular target: T1, 5-hydroxytryptamine receptor 1A (Rattus norvegicus, UniProt P19327); assay type: cell membranes, CHO-K1, Membrane; conditions: cho-k1; also: in other assays of this panel Not Active means under 50% inhibition at 10 µM
T1 sequence (P19327 whole entry): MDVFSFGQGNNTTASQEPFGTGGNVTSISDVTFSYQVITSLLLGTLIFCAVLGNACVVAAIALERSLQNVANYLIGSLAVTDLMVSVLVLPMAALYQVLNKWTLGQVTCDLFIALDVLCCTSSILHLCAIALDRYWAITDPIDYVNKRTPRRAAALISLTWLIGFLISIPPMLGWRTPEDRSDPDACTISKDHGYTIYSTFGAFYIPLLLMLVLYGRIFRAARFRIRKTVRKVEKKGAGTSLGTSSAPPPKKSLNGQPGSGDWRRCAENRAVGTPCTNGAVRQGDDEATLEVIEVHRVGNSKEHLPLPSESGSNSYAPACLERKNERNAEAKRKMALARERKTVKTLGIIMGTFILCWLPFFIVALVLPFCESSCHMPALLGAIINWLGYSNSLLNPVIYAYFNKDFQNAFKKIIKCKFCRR

[5] = molecular target: Beta-3 adrenergic receptor (Homo sapiens, UniProt P13945); assay: DRUGMATRIX: Adrenergic beta3 radioligand binding (ligand: [125I] Cyanopindolol); assay type: cell membranes, HEK293, Membrane; conditions: hek293; Not Active = under 50% inhibition at 10 µM
[6] = molecular target: Beta-1 adrenergic receptor (Homo sapiens, UniProt P08588); assay: DRUGMATRIX: Adrenergic beta1 radioligand binding (ligand: [125I] Cyanopindolol); assay type: cell membranes, CHO-K1, Membrane; conditions: cho-k1; Not Active = under 50% inhibition at 10 µM
Thromboxane-A synthase = molecular target: T2, Thromboxane-A synthase (Homo sapiens, UniProt P24557); assay: biochemical; assay type: tissue-based, Platelet; conditions: platelet;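 also: enzyme inhibition assay with PGH2 supplied as substrate; in other assays of this panel Not Active means under 50% inhibition at 10 µM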
T2 sequence (P24557 whole entry): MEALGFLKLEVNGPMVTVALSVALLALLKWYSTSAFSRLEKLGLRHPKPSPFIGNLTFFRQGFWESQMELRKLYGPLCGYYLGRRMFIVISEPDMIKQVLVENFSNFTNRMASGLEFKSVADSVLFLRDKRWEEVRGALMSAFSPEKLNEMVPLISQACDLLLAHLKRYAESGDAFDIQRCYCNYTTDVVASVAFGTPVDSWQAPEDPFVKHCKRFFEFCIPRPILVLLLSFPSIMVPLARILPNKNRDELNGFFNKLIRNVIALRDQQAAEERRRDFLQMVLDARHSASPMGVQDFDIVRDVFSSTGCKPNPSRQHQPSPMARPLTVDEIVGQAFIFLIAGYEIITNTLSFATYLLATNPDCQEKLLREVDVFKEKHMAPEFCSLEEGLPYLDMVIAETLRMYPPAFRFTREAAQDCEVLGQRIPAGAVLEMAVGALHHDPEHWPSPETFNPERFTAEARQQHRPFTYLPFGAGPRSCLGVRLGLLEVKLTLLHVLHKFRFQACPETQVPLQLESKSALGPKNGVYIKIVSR

D(3) dopamine receptor = D(3) dopamine receptor (Homo sapiens, UniProt P35462); assay: DRUGMATRIX: Dopamine D3 radioligand binding (ligand: [3H] Spiperone); assay type: cell membranes, CHO, Membrane; conditions: cho
Melanocortin receptor 3 = Melanocortin receptor 3 (Homo sapiens, UniProt P41968); assay type: cell membranes, Membrane; conditions: hek293; also: in other assays of this panel Not Active means under 50% inhibition at 10 µM
[7] = molecular target: T3, Alpha-1D adrenergic receptor (Homo sapiens, UniProt P25100); assay type: cell membranes, HEK293, Membrane; conditions: hek293; also: in other assays of this panel Not Active means under 50% inhibition at 10 µM
T3 sequence (P25100 whole entry): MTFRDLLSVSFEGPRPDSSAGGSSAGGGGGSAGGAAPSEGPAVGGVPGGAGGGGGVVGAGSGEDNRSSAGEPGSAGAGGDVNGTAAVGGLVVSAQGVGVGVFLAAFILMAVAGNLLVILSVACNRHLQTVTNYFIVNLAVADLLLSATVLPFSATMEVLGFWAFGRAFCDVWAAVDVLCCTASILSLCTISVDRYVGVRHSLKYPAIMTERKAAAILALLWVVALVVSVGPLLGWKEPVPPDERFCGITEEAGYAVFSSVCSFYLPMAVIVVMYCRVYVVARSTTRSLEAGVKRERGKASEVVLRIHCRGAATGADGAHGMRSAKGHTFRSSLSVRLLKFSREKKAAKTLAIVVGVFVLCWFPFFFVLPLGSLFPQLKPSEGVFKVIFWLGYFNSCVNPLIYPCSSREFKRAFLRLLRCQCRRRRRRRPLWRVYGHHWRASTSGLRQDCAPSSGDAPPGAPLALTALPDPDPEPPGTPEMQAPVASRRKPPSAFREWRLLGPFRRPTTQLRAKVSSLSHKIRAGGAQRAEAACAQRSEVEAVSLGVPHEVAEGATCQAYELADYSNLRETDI

[8] = molecular target: C-C chemokine receptor type 2 (Homo sapiens, UniProt P41597); assay type: cell membranes, CHO-K1, Membrane; conditions: cho-k1; also: in other assays of this panel Not Active means under 50% inhibition at 10 µM
[9] = molecular target: T4, Alpha-1A adrenergic receptor (Rattus norvegicus, UniProt P43140); assay: DRUGMATRIX: Alpha-1A adrenergic receptor radioligand binding (ligand: prazosin); assay type: cell membranes, Wistar, Submaxillary gland, Membrane; conditions: Not Active = under 50% inhibition at 10 µM
T4 sequence (P43140 whole entry): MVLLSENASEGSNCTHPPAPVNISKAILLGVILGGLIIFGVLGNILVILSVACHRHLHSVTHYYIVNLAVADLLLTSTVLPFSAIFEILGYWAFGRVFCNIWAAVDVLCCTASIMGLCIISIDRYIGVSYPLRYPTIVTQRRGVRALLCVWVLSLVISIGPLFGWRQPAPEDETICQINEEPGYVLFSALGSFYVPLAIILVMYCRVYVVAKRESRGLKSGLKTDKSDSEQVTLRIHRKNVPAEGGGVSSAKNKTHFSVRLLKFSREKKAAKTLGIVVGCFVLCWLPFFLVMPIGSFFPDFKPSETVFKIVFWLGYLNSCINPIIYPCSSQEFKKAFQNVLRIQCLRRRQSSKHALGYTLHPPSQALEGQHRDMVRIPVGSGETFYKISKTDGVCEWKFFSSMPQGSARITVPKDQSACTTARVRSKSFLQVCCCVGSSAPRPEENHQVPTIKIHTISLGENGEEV

Cytochrome P450 2E1 = Cytochrome P450 2E1 (Homo sapiens, UniProt P05181); conditions: bti-tn-5b1-4; also: in other assays of this panel Not Active means under 50% inhibition at 10 µM
Chain of Cytochrome P450 2E1 (P05181 whole entry): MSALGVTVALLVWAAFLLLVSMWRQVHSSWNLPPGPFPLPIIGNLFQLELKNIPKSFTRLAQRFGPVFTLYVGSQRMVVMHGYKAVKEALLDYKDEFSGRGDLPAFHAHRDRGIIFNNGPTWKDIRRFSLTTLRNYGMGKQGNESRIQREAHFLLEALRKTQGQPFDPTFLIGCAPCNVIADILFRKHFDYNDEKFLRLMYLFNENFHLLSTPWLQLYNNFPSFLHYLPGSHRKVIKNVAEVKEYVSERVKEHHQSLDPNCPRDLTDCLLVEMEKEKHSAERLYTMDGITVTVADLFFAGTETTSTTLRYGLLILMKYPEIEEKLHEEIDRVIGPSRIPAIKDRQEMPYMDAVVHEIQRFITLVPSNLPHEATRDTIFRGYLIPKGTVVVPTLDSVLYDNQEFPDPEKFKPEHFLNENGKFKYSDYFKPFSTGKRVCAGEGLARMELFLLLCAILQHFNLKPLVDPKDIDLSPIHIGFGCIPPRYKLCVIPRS

Chain of Prostaglandin G/H synthase 1 (P23219 whole entry): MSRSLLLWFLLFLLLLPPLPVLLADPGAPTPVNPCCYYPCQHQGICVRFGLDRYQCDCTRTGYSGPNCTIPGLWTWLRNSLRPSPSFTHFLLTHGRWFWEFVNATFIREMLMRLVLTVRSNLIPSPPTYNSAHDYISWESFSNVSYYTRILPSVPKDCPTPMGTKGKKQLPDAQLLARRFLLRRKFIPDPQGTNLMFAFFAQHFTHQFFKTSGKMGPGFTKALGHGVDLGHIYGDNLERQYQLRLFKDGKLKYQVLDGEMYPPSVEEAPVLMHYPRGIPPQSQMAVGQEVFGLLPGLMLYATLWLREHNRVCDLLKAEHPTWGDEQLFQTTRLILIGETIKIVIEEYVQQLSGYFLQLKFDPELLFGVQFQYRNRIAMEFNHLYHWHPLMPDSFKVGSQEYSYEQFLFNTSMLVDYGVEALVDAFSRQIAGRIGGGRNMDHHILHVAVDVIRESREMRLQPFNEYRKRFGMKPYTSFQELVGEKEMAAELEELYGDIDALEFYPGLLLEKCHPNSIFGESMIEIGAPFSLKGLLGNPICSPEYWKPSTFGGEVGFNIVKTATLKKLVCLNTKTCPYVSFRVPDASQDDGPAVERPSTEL
Chain of Beta-1 adrenergic receptor (P08588 whole entry): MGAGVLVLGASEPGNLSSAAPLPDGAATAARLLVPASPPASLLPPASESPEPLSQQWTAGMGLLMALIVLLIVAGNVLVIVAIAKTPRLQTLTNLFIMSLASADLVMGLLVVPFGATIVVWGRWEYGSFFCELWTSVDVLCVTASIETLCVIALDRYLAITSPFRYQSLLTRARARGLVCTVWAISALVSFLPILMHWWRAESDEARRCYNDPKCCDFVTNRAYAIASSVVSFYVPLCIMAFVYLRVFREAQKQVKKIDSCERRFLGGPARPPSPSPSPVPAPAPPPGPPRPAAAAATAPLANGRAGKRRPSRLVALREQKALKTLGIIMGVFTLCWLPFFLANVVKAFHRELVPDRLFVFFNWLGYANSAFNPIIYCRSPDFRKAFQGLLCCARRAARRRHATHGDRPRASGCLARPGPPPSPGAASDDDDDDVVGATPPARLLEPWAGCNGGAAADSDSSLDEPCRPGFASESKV
Chain of 5-hydroxytryptamine receptor 2B (P41595 whole entry): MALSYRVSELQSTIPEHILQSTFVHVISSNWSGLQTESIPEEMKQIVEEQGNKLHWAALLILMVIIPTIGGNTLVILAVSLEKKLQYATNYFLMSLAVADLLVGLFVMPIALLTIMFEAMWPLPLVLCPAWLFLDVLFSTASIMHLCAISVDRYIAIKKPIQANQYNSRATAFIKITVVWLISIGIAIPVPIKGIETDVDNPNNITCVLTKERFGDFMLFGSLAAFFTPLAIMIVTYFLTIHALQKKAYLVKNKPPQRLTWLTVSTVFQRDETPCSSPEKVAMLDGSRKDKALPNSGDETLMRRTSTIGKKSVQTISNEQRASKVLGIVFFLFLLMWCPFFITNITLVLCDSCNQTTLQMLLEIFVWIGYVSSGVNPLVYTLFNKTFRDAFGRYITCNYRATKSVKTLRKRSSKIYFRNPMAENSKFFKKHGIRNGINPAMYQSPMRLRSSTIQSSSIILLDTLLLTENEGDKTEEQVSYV
Chain of Melanocortin receptor 3 (P41968 whole entry): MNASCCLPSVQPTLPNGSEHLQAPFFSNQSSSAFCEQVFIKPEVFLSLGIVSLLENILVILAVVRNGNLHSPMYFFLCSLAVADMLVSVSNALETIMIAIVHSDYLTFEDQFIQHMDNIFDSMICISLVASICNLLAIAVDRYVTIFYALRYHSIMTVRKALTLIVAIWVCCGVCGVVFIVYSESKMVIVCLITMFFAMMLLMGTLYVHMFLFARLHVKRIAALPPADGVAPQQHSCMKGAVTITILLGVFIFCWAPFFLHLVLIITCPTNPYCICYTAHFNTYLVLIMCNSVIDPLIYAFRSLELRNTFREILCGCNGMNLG
Chain of D(3) dopamine receptor (P35462 whole entry): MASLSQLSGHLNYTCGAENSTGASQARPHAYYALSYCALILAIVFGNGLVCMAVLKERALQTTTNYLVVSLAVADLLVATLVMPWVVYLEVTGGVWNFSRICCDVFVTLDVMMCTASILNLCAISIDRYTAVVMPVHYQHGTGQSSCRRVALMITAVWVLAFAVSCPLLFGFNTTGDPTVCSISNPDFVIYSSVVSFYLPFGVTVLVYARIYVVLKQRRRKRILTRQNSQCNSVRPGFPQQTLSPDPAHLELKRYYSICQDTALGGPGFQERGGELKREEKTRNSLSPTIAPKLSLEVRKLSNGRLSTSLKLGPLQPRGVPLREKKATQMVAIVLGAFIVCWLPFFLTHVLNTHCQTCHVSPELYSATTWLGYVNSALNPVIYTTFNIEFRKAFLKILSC
Chain of C-C chemokine receptor type 2 (P41597 whole entry): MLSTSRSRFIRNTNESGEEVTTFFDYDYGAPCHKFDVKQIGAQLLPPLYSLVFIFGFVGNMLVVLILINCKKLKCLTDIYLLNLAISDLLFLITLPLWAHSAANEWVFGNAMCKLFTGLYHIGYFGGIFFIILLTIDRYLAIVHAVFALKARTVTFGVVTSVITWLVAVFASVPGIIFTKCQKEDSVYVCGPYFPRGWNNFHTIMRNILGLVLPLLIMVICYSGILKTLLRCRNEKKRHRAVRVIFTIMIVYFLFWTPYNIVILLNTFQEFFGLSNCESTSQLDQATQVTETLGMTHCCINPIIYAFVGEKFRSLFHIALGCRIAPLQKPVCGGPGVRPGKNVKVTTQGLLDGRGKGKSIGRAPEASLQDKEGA
Chain of Beta-3 adrenergic receptor (P13945 whole entry): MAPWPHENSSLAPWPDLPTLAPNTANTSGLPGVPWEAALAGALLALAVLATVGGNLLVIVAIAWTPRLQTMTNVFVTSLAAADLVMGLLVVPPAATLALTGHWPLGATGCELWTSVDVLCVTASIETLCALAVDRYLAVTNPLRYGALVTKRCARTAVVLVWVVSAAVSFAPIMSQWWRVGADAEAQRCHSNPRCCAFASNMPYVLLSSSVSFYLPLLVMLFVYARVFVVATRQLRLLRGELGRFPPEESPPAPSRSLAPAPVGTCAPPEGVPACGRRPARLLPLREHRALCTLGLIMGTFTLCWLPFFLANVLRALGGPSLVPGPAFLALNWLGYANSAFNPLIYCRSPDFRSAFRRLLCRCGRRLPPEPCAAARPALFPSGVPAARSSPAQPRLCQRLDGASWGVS

CC1(C)[C@@H](O[C@H]2O[C@H](C(=O)O)[C@@H](O)[C@H](O)[C@H]2O[C@@H]2O[C@H](C(=O)O)[C@@H](O)[C@H](O)[C@H]2O)CC[C@]2(C)[C@H]3C(=O)C=C4[C@@H]5C[C@@](C)(C(=O)O)CC[C@]5(C)CC[C@@]4(C)[C@]3(C)CC[C@@H]12 [GLYCYRRHIZIN]
Not Active: IC50 [1] | IC50 [2] | Ki [2] | IC50 [3] | IC50 [4] | IC50 [5] | IC50 [6] | IC50 (Thromboxane-A synthase) | IC50 (D(3) dopamine receptor) | IC50 (Melanocortin receptor 3) | IC50 [7] | IC50 [8] | IC50 [9] | IC50 (Cytochrome P450 2E1) | Ki (Cytochrome P450 2E1)

COC1=CC(=O)C[C@@H](C)[C@]12Oc1c(Cl)c(OC)cc(OC)c1C2=O [GRISEOFULVIN]
Not Active: IC50 [1] | IC50 [2] | Ki [2] | IC50 [3] | IC50 [4] | IC50 [5] | IC50 [6] | IC50 (Thromboxane-A synthase) | IC50 (D(3) dopamine receptor) | IC50 (Melanocortin receptor 3) | IC50 [7] | IC50 [8] | IC50 [9] | IC50 (Cytochrome P450 2E1) | Ki (Cytochrome P450 2E1)

C/C=C1\[C@H]2C=C(C)C[C@]1(N)c1ccc(=O)[nH]c1C2 [HUPERZINE A]
Not Active: IC50 [1] | IC50 [2] | Ki [2] | IC50 [3] | IC50 [4] | IC50 [5] | IC50 [6] | IC50 (Thromboxane-A synthase) | IC50 (D(3) dopamine receptor) | IC50 (Melanocortin receptor 3) | IC50 [7] | IC50 [8] | IC50 [9] | IC50 (Cytochrome P450 2E1) | Ki (Cytochrome P450 2E1)

NS(=O)(=O)c1cc2c(cc1Cl)NCNS2(=O)=O [HYDROCHLOROTHIAZIDE]
Not Active: IC50 [1] | IC50 [2] | Ki [2] | IC50 [3] | IC50 [4] | IC50 [5] | IC50 [6] | IC50 (Thromboxane-A synthase) | IC50 (D(3) dopamine receptor) | IC50 (Melanocortin receptor 3) | IC50 [7] | IC50 [8] | IC50 [9] | IC50 (Cytochrome P450 2E1) | Ki (Cytochrome P450 2E1)

CN1CCC[C@H]1c1cccnc1 [NICOTINE]
Not Active: IC50 [1] | IC50 [2] | Ki [2] | IC50 [3] | IC50 [4] | IC50 [5] | IC50 [6] | IC50 (Thromboxane-A synthase) | IC50 (D(3) dopamine receptor) | IC50 (Melanocortin receptor 3) | IC50 [7] | IC50 [8] | IC50 [9] | IC50 (Cytochrome P450 2E1) | Ki (Cytochrome P450 2E1)

O=C1CN=C(c2ccccc2)c2cc([N+](=O)[O-])ccc2N1 [NITRAZEPAM]
Not Active: IC50 [1] | IC50 [2] | Ki [2] | IC50 [3] | IC50 [4] | IC50 [5] | IC50 [6] | IC50 (Thromboxane-A synthase) | IC50 (D(3) dopamine receptor) | IC50 (Melanocortin receptor 3) | IC50 [7] | IC50 [8] | IC50 [9] | IC50 (Cytochrome P450 2E1) | Ki (Cytochrome P450 2E1)

Source: ChEMBL document CHEMBL1909046, “DrugMatrix in vitro pharmacology data”
